Reference: ChEMBL document CHEMBL1201862, “PubChem BioAssay data set” (2004)
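How tested: cells in 96-well plates exposed to compound for 48 hours at five concentrations. GI50 marks 50% less growth.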 Active and inactive are the calls of the source. No stated cut-off is given here; in the data, active = GI50 up to about 1.1 µM and inactive = higher.

Key:
Assay in all cases: NCI anticancer screen, dose series, 48 h
OVCAR-3 = test system: OVCAR-3
HOP-62 = test system: HOP-62
Malme-3M = test system: Malme-3M
RXF 393 = test system: RXF 393
IGROV-1 = test system: IGROV-1
NCI-H23 = test system: NCI-H23
KM-20L2 = test system: KM-20L2
UACC-62 = test system: UACC-62
LOX IMVI = test system: LOX IMVI
NCI-H522 = test system: NCI-H522
HCC 2998 = test system: HCC 2998
MOLT-4 = test system: MOLT-4
DMS-273 = test system: DMS-273
M14 = test system: M14
SN12C = test system: SN12C
HCT-116 = test system: HCT-116
SW-620 = test system: SW-620
K562 = test system: K562
HOP-92 = test system: HOP-92
SNB-78 = test system: SNB-78
NCI-H460 = test system: NCI-H460
XF498 = test system: XF498
SK-OV-3 = test system: SK-OV-3
UO-31 = test system: UO-31
COLO 205 = test system: COLO 205
CAKI-1 = test system: CAKI-1
OVCAR-8 = test system: OVCAR-8
HCT-15 = test system: HCT-15
786-0 = test system: 786-0
SF-295 = test system: SF-295
A549 = test system: A549
OVCAR-5 = test system: OVCAR-5
HL-60 = test system: HL-60
CCRF-CEM = test system: CCRF-CEM
KM12 = test system: KM12
ACHN = test system: ACHN
SNB-75 = test system: SNB-75
DMS-114 = test system: DMS-114
U-251 = test system: U-251
SR = test system: SR
M19-MEL = test system: M19-MEL
NCI-H226 = test system: NCI-H226
HOP-18 = test system: HOP-18
EKVX = test system: EKVX
RPMI-8226 = test system: RPMI-8226
SF-268 = test system: SF-268
SNB-19 = test system: SNB-19
LXFL 529 = test system: LXFL 529
UACC-257 = test system: UACC-257
OVCAR-4 = test system: OVCAR-4
A498 = test system: A498
HT-29 = test system: HT-29
TK-10 = test system: TK-10
DLD-1 = test system: DLD-1
SK-MEL-28 = test system: SK-MEL-28
SK-MEL-2 = test system: SK-MEL-2
SK-MEL-5 = test system: SK-MEL-5
SF-539 = test system: SF-539

**Q.** Which GI50 (OVCAR-3) does the source give for O=C(Nc1ccc(Br)cc1)C(=O)C(C(=O)c1ccc(Cl)c(Cl)c1)C1OC(=O)c2ccccc21 (stereo unspecified) here?
**A.** 18.5 µM (inactive)

**Q.** What about the GI50 (HOP-62) of the same compound?
**A.** 15.2 µM (inactive)

**Q.** What about the GI50 (Malme-3M) of the same compound?
**A.** 10.4 µM (inactive)

**Q.** And the GI50 (RXF 393)?
**A.** 3.5 µM (inactive)

**Q.** And the GI50 (IGROV-1)?
**A.** 18.5 µM (inactive)

**Q.** What about the GI50 (NCI-H23) of the same compound?
**A.** 13.9 µM (inactive)

**Q.** And the GI50 (KM-20L2)?
**A.** 33 µM (inactive)

**Q.** What about the GI50 (UACC-62) of the same compound?
**A.** 13.4 µM (inactive)

**Q.** And the GI50 (LOX IMVI)?
**A.** 17.6 µM (inactive)

**Q.** What about the GI50 (NCI-H522) of the same compound?
**A.** 18.3 µM (inactive)

**Q.** What about the GI50 (HCC 2998) of the same compound?
**A.** 14.6 µM (inactive)

**Q.** And the GI50 (MOLT-4)?
**A.** 10.4 µM (inactive)

**Q.** What about the GI50 (DMS-273) of the same compound?
**A.** 19.1 µM (inactive)

**Q.** What about the GI50 (M14) of the same compound?
**A.** 15.4 µM (inactive)

**Q.** What about the GI50 (SN12C) of the same compound?
**A.** 20.2 µM (inactive)

**Q.** What about the GI50 (HCT-116) of the same compound?
**A.** 12.5 µM (inactive)

**Q.** And the GI50 (SW-620)?
**A.** 14 µM (inactive)

**Q.** And the GI50 (K562)?
**A.** 12.5 µM (inactive)

**Q.** What about the GI50 (HOP-92) of the same compound?
**A.** 15 µM (inactive)

**Q.** And the GI50 (SNB-78)?
**A.** 17.1 µM (inactive)

**Q.** What about the GI50 (NCI-H460) of the same compound?
**A.** 15.1 µM (inactive)

**Q.** And the GI50 (XF498)?
**A.** 13.8 µM (inactive)

**Q.** What about the GI50 (SK-OV-3) of the same compound?
**A.** 35.1 µM (inactive)

**Q.** What about the GI50 (UO-31) of the same compound?
**A.** 18.5 µM (inactive)

**Q.** What about the GI50 (COLO 205) of the same compound?
**A.** 16.4 µM (inactive)

**Q.** And the GI50 (CAKI-1)?
**A.** 14.4 µM (inactive)

**Q.** What about the GI50 (OVCAR-8) of the same compound?
**A.** 12.3 µM (inactive)

**Q.** And the GI50 (HCT-15)?
**A.** 20.9 µM

**Q.** What about the GI50 (786-0) of the same compound?
**A.** 15 µM (inactive)

**Q.** What about the GI50 (SF-295) of the same compound?
**A.** 15.2 µM (inactive)

**Q.** What about the GI50 (A549) of the same compound?
**A.** 16.4 µM (inactive)

**Q.** What about the GI50 (OVCAR-5) of the same compound?
**A.** 17.3 µM (inactive)

**Q.** What about the GI50 (HL-60) of the same compound?
**A.** 17.2 µM (inactive)

**Q.** What about the GI50 (CCRF-CEM) of the same compound?
**A.** 10 µM (inactive)

**Q.** What about the GI50 (KM12) of the same compound?
**A.** 16.6 µM (inactive)

**Q.** And the GI50 (ACHN)?
**A.** 16.3 µM (inactive)

**Q.** And the GI50 (SNB-75)?
**A.** 20.8 µM (inactive)

**Q.** And the GI50 (DMS-114)?
**A.** 10.9 µM (inactive)

**Q.** And the GI50 (U-251)?
**A.** 8.97 µM (inactive)

**Q.** What about the GI50 (SR) of the same compound?
**A.** 17.3 µM (inactive)

**Q.** What about the GI50 (M19-MEL) of the same compound?
**A.** 15 µM (inactive)

**Q.** What about the GI50 (NCI-H226) of the same compound?
**A.** 4.56 µM (inactive)

**Q.** What about the GI50 (HOP-18) of the same compound?
**A.** 14.4 µM (inactive)

**Q.** And the GI50 (EKVX)?
**A.** 28.8 µM (inactive)

**Q.** And the GI50 (RPMI-8226)?
**A.** 39.7 µM (inactive)

**Q.** And the GI50 (SF-268)?
**A.** 4.99 µM (inactive)

**Q.** And the GI50 (SNB-19)?
**A.** 16.7 µM (inactive)

**Q.** What about the GI50 (LXFL 529) of the same compound?
**A.** 9.98 µM (inactive)

**Q.** And the GI50 (UACC-257)?
**A.** 16 µM (inactive)

**Q.** And the GI50 (OVCAR-4)?
**A.** 16.3 µM (inactive)

**Q.** What about the GI50 (A498) of the same compound?
**A.** 16.2 µM (inactive)

**Q.** And the GI50 (HT-29)?
**A.** 21.3 µM (inactive)

**Q.** And the GI50 (TK-10)?
**A.** 20.2 µM (inactive)

**Q.** And the GI50 (DLD-1)?
**A.** 18.3 µM (inactive)

**Q.** And the GI50 (SK-MEL-28)?
**A.** 13.7 µM (inactive)

**Q.** Which GI50 (OVCAR-3) does the source give for Cn1cc(NC(=O)c2cc(NC(=O)CCCCCCCCCCC(=O)Nc3cc(C(=O)Nc4cc(C(=O)NCCC(=N)N)n(C)c4)n(C)c3)cn2C)cc1C(=O)NCCC(=N)N here?
**A.** 52.7 µM (inactive)

**Q.** What about the GI50 (HOP-62) of the same compound?
**A.** 25.9 µM (inactive)

**Q.** What about the GI50 (Malme-3M) of the same compound?
**A.** 2.18 µM (inactive)

**Q.** What about the GI50 (RXF 393) of the same compound?
**A.** 17.8 µM (inactive)

**Q.** What about the GI50 (IGROV-1) of the same compound?
**A.** 24.5 µM (inactive)

**Q.** What about the GI50 (NCI-H23) of the same compound?
**A.** 32 µM (inactive)

**Q.** And the GI50 (KM-20L2)?
**A.** 27 µM (inactive)

**Q.** And the GI50 (UACC-62)?
**A.** 7.5 µM (inactive)

**Q.** And the GI50 (LOX IMVI)?
**A.** 40.4 µM (inactive)

**Q.** And the GI50 (SK-MEL-2)?
**A.** 35.8 µM (inactive)

**Q.** What about the GI50 (NCI-H522) of the same compound?
**A.** 12.1 µM (inactive)

**Q.** And the GI50 (HCC 2998)?
**A.** 19 µM (inactive)

**Q.** What about the GI50 (MOLT-4) of the same compound?
**A.** 45.9 µM (inactive)

**Q.** What about the GI50 (DMS-273) of the same compound?
**A.** 28.2 µM (inactive)

**Q.** And the GI50 (M14)?
**A.** 28.2 µM (inactive)

**Q.** And the GI50 (SN12C)?
**A.** 37.1 µM (inactive)

**Q.** What about the GI50 (HCT-116) of the same compound?
**A.** 27 µM (inactive)

**Q.** What about the GI50 (SW-620) of the same compound?
**A.** 17.9 µM (inactive)

**Q.** What about the GI50 (K562) of the same compound?
**A.** 74 µM (inactive)

**Q.** And the GI50 (SNB-78)?
**A.** 46.7 µM (inactive)

**Q.** And the GI50 (NCI-H460)?
**A.** 18.6 µM (inactive)

**Q.** And the GI50 (XF498)?
**A.** > 100 µM (inactive)

**Q.** What about the GI50 (SK-OV-3) of the same compound?
**A.** > 100 µM (inactive)

**Q.** And the GI50 (UO-31)?
**A.** > 100 µM (inactive)

**Q.** What about the GI50 (COLO 205) of the same compound?
**A.** 9.73 µM (inactive)

**Q.** What about the GI50 (CAKI-1) of the same compound?
**A.** 46.8 µM (inactive)

**Q.** What about the GI50 (SK-MEL-5) of the same compound?
**A.** 15.8 µM (inactive)

**Q.** What about the GI50 (OVCAR-8) of the same compound?
**A.** 20.3 µM (inactive)

**Q.** What about the GI50 (HCT-15) of the same compound?
**A.** 36.6 µM

**Q.** And the GI50 (786-0)?
**A.** 23.6 µM (inactive)

**Q.** What about the GI50 (SF-295) of the same compound?
**A.** 50.8 µM (inactive)

**Q.** What about the GI50 (A549) of the same compound?
**A.** 22.2 µM (inactive)

**Q.** And the GI50 (OVCAR-5)?
**A.** 67.3 µM (inactive)

**Q.** And the GI50 (CCRF-CEM)?
**A.** 50 µM (inactive)

**Q.** And the GI50 (KM12)?
**A.** 12.4 µM (inactive)

**Q.** What about the GI50 (ACHN) of the same compound?
**A.** 29.9 µM (inactive)

**Q.** And the GI50 (SNB-75)?
**A.** > 100 µM (inactive)

**Q.** What about the GI50 (U-251) of the same compound?
**A.** 33 µM (inactive)

**Q.** And the GI50 (NCI-H226)?
**A.** > 100 µM (inactive)

**Q.** What about the GI50 (HOP-18) of the same compound?
**A.** 15.2 µM (inactive)

**Q.** What about the GI50 (EKVX) of the same compound?
**A.** 31 µM (inactive)

**Q.** And the GI50 (SF-268)?
**A.** 30.6 µM (inactive)

**Q.** And the GI50 (SNB-19)?
**A.** 34.4 µM (inactive)

**Q.** What about the GI50 (SF-539) of the same compound?
**A.** 47.6 µM (inactive)

**Q.** And the GI50 (LXFL 529)?
**A.** 16.9 µM (inactive)

**Q.** And the GI50 (UACC-257)?
**A.** 7.8 µM (inactive)

**Q.** What about the GI50 (OVCAR-4) of the same compound?
**A.** 41.4 µM (inactive)

**Q.** What about the GI50 (HT-29) of the same compound?
**A.** 29.1 µM (inactive)

**Q.** What about the GI50 (TK-10) of the same compound?
**A.** 29.4 µM (inactive)

**Q.** What about the GI50 (DLD-1) of the same compound?
**A.** 27.9 µM (inactive)

**Q.** What about the GI50 (SK-MEL-28) of the same compound?
**A.** > 10 µM (inactive)
